Laboratory results published in PMC8945778, “Functional Characterization of Serotonin N-Acetyltransferase in Archaeon Thermoplasma volcanium” (Antioxidants, 2022).

Biological target: T1, TvSNAT (Thermoplasma volcanium, UniProt Q97CT7)
T1 construct: gene TVG0012647
Experiment: HPLC of N-acetylserotonin, dose-dependent inhibition of serotonin acetylation
Type: biochemical
Details: serotonin 0.5 mM; acetyl-CoA 0.5 mM; pH 8.8; 45 °C; suggested alternative substrate; 50% point read by authors, no fit; read-out: SNAT activity decreased to 50%

T1 sequence (Q97CT7 entry or part of it): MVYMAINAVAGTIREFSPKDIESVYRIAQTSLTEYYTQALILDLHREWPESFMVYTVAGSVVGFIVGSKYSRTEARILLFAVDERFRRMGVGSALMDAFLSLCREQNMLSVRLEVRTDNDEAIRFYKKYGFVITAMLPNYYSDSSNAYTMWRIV

NC[C@H](O)c1ccc(O)cc1 [octopamine]
IC50: ~500 µM

NCCCCNCCCN [spermidine]
IC50: ~100 µM
